Results taken from patent US12070458B2, “Therapeutic agent composition and method of use, for treatment of mild congnitive impairment, depression, and psychological disorders” (priority 2018, dated 2024).
Entries after “also recorded” stand apart in the source; their conditions may differ.

System: Alzheimer patients with mild cognitive impairment
Experiment: Clinical trial on Alzheimer's patients with mild cognitive impairment
Format: in vivo, human
Settings: 10 mg orally once a day
Experimental: A randomized clinical trial of NA-831 (also known as cyclic Prolyl Glycine) was performed on Alzheimer patients with mild cognitive impairment of vascular origin. The drug NA-831 was administered orally with a one capsule of 10 mg once a day over a period of 12 weeks. There were 32 Alzheimer patients participated in the study.
• Is male or female, at 55-85 years of age (inclusive) at screening. • Self-reported memory complaint, corroborated by spouse or companion as appropriate. • Wechsler Memory Scale III (WMS-III) age-adjusted Logical Memory II score ≤5. • Mini-Mental State Exam (MMSE)≥24. • Center for Epidemiologic Studies-Depression (CES-D) score <27. • Normal thyroid function, defined as TSH, T3 and T4 within normal limits. • Agree not to consume alcoholic beverages within 8 hours of each study visit. • Willing and able to sign informed consent and complete the CTB and all other tests and procedures as listed in the protocol. • Female subjects must be surgically sterile or post-menopausal for at least 2 years. If <2 years post-menopausal, then a follicle stimulating hormone (FSH) ≥40 mIU/mL must be obtained. […] Assessment • 1) A scale assessing the severity of symptoms based on the Unified Assessment of Clinical-Pharmacological Actions of Psychotropic Agents in Patients with Organic Disorders, which provides objective quantitative data on the therapeutic dynamics of psychopathological symptomatology and the characteristics of the psychotropic actions of agents. • 2) The Mini Mental State Examination (MMSE), which consists of a battery of neuropsychological tests evaluating cognitive functions in points: attention, memory, gnosis, speech, praxis, and counting. • 3) The Brief Cognitive Rating Scale (BCRS), which provides assessment of the severities of the individual components of cognitive impairments. • 4) The Cognitive Capacity Screening Examination (CCSE), which consists of a battery of tests assessing cognitive functions: orientation, memory, counting, and the abilities to infer and to group objects. • 5) The Clinical Global Impression scale, which provides quantitative assessments of the therapeutic efficacies of agents, along with tolerance and safety, using investigations of measures of disease severity, the level of “overall improvement,” the therapeutic effect, and the presence and severity of side effects during treatment. • 6) Laboratory analyses consisting of general blood and urine tests, including biochemical investigations (AST, ALT). • 7) ECG traces. Results
The mental state of patients with mild cognitive impairment, such as but not limited to through vascular origin was defined by the assessment including the Mini Mental State Examination (MMSE), the Brief Cognitive Rating Scale (BCRS), the Cognitive Capacity Screening Examination (CCSE).
W is Wilcoxon signed-rank test, which is the nonparametric test equivalent to the dependent t-test. It is used to compare two sets of scores that come from the same participants. This can occur when we wish to investigate any change in scores from one time point to another, or when individuals are subjected to more than one condition.
Clinicians use used a Wilcoxon signed-rank test to understand whether there was a difference in the patient conditions in term of fatigue before and after a period the time with the drug treatment.
Analysis of the therapeutic efficacies of NA-831 were performed in all patients in the trial using the assessment methods including: the Mini Mental State Examination (MMSE), the Brief Cognitive Rating Scale (BCRS), and the Cognitive Capacity Screening Examination (CCSE).

Compound: O=C1NCC(=O)N2CCC[C@@H]12 [cPG, cyclic Prolyl Glycine]
- long-term memory (12 weeks): improves
- orientation (12 weeks): improves
- patients with little improvement (12 weeks): 7.5%
- patients with marked improvement (12 weeks): 92.5%
- short-term memory (12 weeks): improves
- ability to concentrate and count (Brief Cognitive Rating Scale) (day 42 to day 84, p value of less than 0.01): improve
- functions significantly improved with p<0.01 (listed as NA-831): Reduce fatigue; also recorded: Reduce anxiety; also recorded: Reduce irritability; also recorded: Improve lability; also recorded: Reduce disturbance from waking up at night; also recorded: Reduce daytime drowsiness; also recorded: Improve duration of nocturnal sleep
- Affective Lability, W (Wilcoxon signed-rank test) (Baseline vs day 7): 23
- Anxiety, W (Wilcoxon signed-rank test) (Baseline vs day 7): 22
- Apathy indifference, W (Wilcoxon signed-rank test) (Baseline vs day 7): 19
- Daytime drowsiness, W (Wilcoxon signed-rank test) (Baseline vs day 7): 19
- Decreased mood, W (Wilcoxon signed-rank test) (Baseline vs day 7): 3
- Disturbance to waking, W (Wilcoxon signed-rank test) (Baseline vs day 7): 21
- Headache, W (Wilcoxon signed-rank test) (Baseline vs day 7): 28
- Hyperesthesia, W (Wilcoxon signed-rank test) (Baseline vs day 7): 11
- Impairments to the depth and duration of nocturnal sleep, W (Wilcoxon signed-rank test) (Baseline vs day 7): 37
- Increased fatigue, W (Wilcoxon signed-rank test) (Baseline vs day 7): 17
- Increased irritability, W (Wilcoxon signed-rank test) (Baseline vs day 7): 38
- Orthostatic Impairment, W (Wilcoxon signed-rank test) (Baseline vs day 7): 18
- Sleeping Disturbance, W (Wilcoxon signed-rank test) (Baseline vs day 7): 37
- Sweating, W (Wilcoxon signed-rank test) (Baseline vs day 7): 12
- Tachycardia, W (Wilcoxon signed-rank test) (Baseline vs day 7): 29
- Affective Lability, W (Wilcoxon signed-rank test) (Baseline vs day 14): 58
- Anxiety, W (Wilcoxon signed-rank test) (Baseline vs day 14): 22
- Apathy indifference, W (Wilcoxon signed-rank test) (Baseline vs day 14): 41
- Daytime drowsiness, W (Wilcoxon signed-rank test) (Baseline vs day 14): 45
- Decreased mood, W (Wilcoxon signed-rank test) (Baseline vs day 14): 12
- Disturbance to waking, W (Wilcoxon signed-rank test) (Baseline vs day 14): 29
- Headache, W (Wilcoxon signed-rank test) (Baseline vs day 14): 49
- Hyperesthesia, W (Wilcoxon signed-rank test) (Baseline vs day 14): 21
- Impairments to the depth and duration of nocturnal sleep, W (Wilcoxon signed-rank test) (Baseline vs day 14): 57
- Increased fatigue, W (Wilcoxon signed-rank test) (Baseline vs day 14): 95
- Increased irritability, W (Wilcoxon signed-rank test) (Baseline vs day 14): 47
- Orthostatic Impairment, W (Wilcoxon signed-rank test) (Baseline vs day 14): 37
- Sleeping Disturbance, W (Wilcoxon signed-rank test) (Baseline vs day 14): 47
- Sweating, W (Wilcoxon signed-rank test) (Baseline vs day 14): 23
- Tachycardia, W (Wilcoxon signed-rank test) (Baseline vs day 14): 28
- Affective Lability, W (Wilcoxon signed-rank test) (Baseline vs day 21): 69
- Anxiety, W (Wilcoxon signed-rank test) (Baseline vs day 21): 46
- Apathy indifference, W (Wilcoxon signed-rank test) (Baseline vs day 21): 57
- Daytime drowsiness, W (Wilcoxon signed-rank test) (Baseline vs day 21): 52
- Decreased mood, W (Wilcoxon signed-rank test) (Baseline vs day 21): 22
- Disturbance to waking, W (Wilcoxon signed-rank test) (Baseline vs day 21): 41
- Headache, W (Wilcoxon signed-rank test) (Baseline vs day 21): 98
- Hyperesthesia, W (Wilcoxon signed-rank test) (Baseline vs day 21): 33
- Impairments to the depth and duration of nocturnal sleep, W (Wilcoxon signed-rank test) (Baseline vs day 21): 91
- Increased fatigue, W (Wilcoxon signed-rank test) (Baseline vs day 21): 97
- Increased irritability, W (Wilcoxon signed-rank test) (Baseline vs day 21): 68
- Orthostatic Impairment, W (Wilcoxon signed-rank test) (Baseline vs day 21): 58
- Sleeping Disturbance, W (Wilcoxon signed-rank test) (Baseline vs day 21): 70
- Sweating, W (Wilcoxon signed-rank test) (Baseline vs day 21): 37
- Tachycardia, W (Wilcoxon signed-rank test) (Baseline vs day 21): 35
- Affective Lability, W (Wilcoxon signed-rank test) (Baseline vs day 28): 118
- Anxiety, W (Wilcoxon signed-rank test) (Baseline vs day 28): 70
- Apathy indifference, W (Wilcoxon signed-rank test) (Baseline vs day 28): 59
- Daytime drowsiness, W (Wilcoxon signed-rank test) (Baseline vs day 28): 67
- Decreased mood, W (Wilcoxon signed-rank test) (Baseline vs day 28): 23
- Disturbance to waking, W (Wilcoxon signed-rank test) (Baseline vs day 28): 47
- Headache, W (Wilcoxon signed-rank test) (Baseline vs day 28): 101
- Hyperesthesia, W (Wilcoxon signed-rank test) (Baseline vs day 28): 67
- Impairments to the depth and duration of nocturnal sleep, W (Wilcoxon signed-rank test) (Baseline vs day 28): 93
- Increased fatigue, W (Wilcoxon signed-rank test) (Baseline vs day 28): 137
- Increased irritability, W (Wilcoxon signed-rank test) (Baseline vs day 28): 93
- Orthostatic Impairment, W (Wilcoxon signed-rank test) (Baseline vs day 28): 78
- Sleeping Disturbance, W (Wilcoxon signed-rank test) (Baseline vs day 28): 70
- Sweating, W (Wilcoxon signed-rank test) (Baseline vs day 28): 66
- Tachycardia, W (Wilcoxon signed-rank test) (Baseline vs day 28): 45
- Affective Lability, W (Wilcoxon signed-rank test) (Baseline vs day 42): 139
- Anxiety, W (Wilcoxon signed-rank test) (Baseline vs day 42): 107
- Apathy indifference, W (Wilcoxon signed-rank test) (Baseline vs day 42): 61
- Daytime drowsiness, W (Wilcoxon signed-rank test) (Baseline vs day 42): 76
- Decreased mood, W (Wilcoxon signed-rank test) (Baseline vs day 42): 23
- Disturbance to waking, W (Wilcoxon signed-rank test) (Baseline vs day 42): 69
- Headache, W (Wilcoxon signed-rank test) (Baseline vs day 42): 120
- Hyperesthesia, W (Wilcoxon signed-rank test) (Baseline vs day 42): 69
- Impairments to the depth and duration of nocturnal sleep, W (Wilcoxon signed-rank test) (Baseline vs day 42): 104
- Increased fatigue, W (Wilcoxon signed-rank test) (Baseline vs day 42): 155
- Increased irritability, W (Wilcoxon signed-rank test) (Baseline vs day 42): 109
- Orthostatic Impairment, W (Wilcoxon signed-rank test) (Baseline vs day 42): 67
- Sleeping Disturbance, W (Wilcoxon signed-rank test) (Baseline vs day 42): 82
- Sweating, W (Wilcoxon signed-rank test) (Baseline vs day 42): 67
- Tachycardia, W (Wilcoxon signed-rank test) (Baseline vs day 42): 53
- Affective Lability, W (Wilcoxon signed-rank test) (Baseline vs day 56): 140
- Anxiety, W (Wilcoxon signed-rank test) (Baseline vs day 56): 110
- Apathy indifference, W (Wilcoxon signed-rank test) (Baseline vs day 56): 65
- Daytime drowsiness, W (Wilcoxon signed-rank test) (Baseline vs day 56): 109
- Decreased mood, W (Wilcoxon signed-rank test) (Baseline vs day 56): 23
- Disturbance to waking, W (Wilcoxon signed-rank test) (Baseline vs day 56): 92
- Headache, W (Wilcoxon signed-rank test) (Baseline vs day 56): 121
- Hyperesthesia, W (Wilcoxon signed-rank test) (Baseline vs day 56): 78
- Impairments to the depth and duration of nocturnal sleep, W (Wilcoxon signed-rank test) (Baseline vs day 56): 113
- Increased fatigue, W (Wilcoxon signed-rank test) (Baseline vs day 56): 159
- Increased irritability, W (Wilcoxon signed-rank test) (Baseline vs day 56): 110
- Orthostatic Impairment, W (Wilcoxon signed-rank test) (Baseline vs day 56): 78
- Sleeping Disturbance, W (Wilcoxon signed-rank test) (Baseline vs day 56): 82
- Sweating, W (Wilcoxon signed-rank test) (Baseline vs day 56): 67
- Tachycardia, W (Wilcoxon signed-rank test) (Baseline vs day 56): 67
- Affective Lability, W (Wilcoxon signed-rank test) (Baseline vs day 70): 142
- Anxiety, W (Wilcoxon signed-rank test) (Baseline vs day 70): 115
- Apathy indifference, W (Wilcoxon signed-rank test) (Baseline vs day 70): 67
- Daytime drowsiness, W (Wilcoxon signed-rank test) (Baseline vs day 70): 117
- Decreased mood, W (Wilcoxon signed-rank test) (Baseline vs day 70): 24
- Disturbance to waking, W (Wilcoxon signed-rank test) (Baseline vs day 70): 95
- Headache, W (Wilcoxon signed-rank test) (Baseline vs day 70): 129
- Hyperesthesia, W (Wilcoxon signed-rank test) (Baseline vs day 70): 83
- Impairments to the depth and duration of nocturnal sleep, W (Wilcoxon signed-rank test) (Baseline vs day 70): 118
- Increased fatigue, W (Wilcoxon signed-rank test) (Baseline vs day 70): 162
- Increased irritability, W (Wilcoxon signed-rank test) (Baseline vs day 70): 117
- Orthostatic Impairment, W (Wilcoxon signed-rank test) (Baseline vs day 70): 81
- Sleeping Disturbance, W (Wilcoxon signed-rank test) (Baseline vs day 70): 82
- Sweating, W (Wilcoxon signed-rank test) (Baseline vs day 70): 69
- Tachycardia, W (Wilcoxon signed-rank test) (Baseline vs day 70): 69
- MMSE, average (day 84, average 23.5 on day 1): 29.75
